The values that follow come from patent US9745325B2, “Fused heterocyclic compound” (Takeda Pharmaceutical Company Limited, priority 2014, dated 2017).

Experiment [1] concerns the target T1, CDC2L6/CycC (CDK19) (Homo sapiens, UniProt Q9BWU1).
T1 construct: purchased Carna Biosciences Inc
Nature of the experiment: CDK19 inhibitory activity (Kinase Tracer-236 / Eu-anti-GST fluorescence assay). Format: binding. More on the design: Percent inhibition of CDK19 activity (%): concentration or dose not given beside the values. The conditions noted are these: for Percent inhibition of CDK19 activity (%): test compound concentration given as '1 1.1.1\4' [sic]. How it is done: (§1) The compound of the present invention was evaluated for its CDK8 inhibitory activity and CDK19 inhibitory activity by the following method. […] The primary diluted solution was dispensed in the amount of 2 μL/well to a 384-well plate, and then, a mixed solution of Eu^3+ Cryptate conjugated mouse monoclonal antibody anti-glutathione S-transferase (Cisbio) diluted 267-fold with an assay buffer and 60 nM Kinase Tracer-236 (Life technologies) was added thereto at 2 μL/well. […] After the addition, the plate was left standing at room temperature for 1 hour, and then, the fluorescence intensity (excitation wavelength 320 nm, fluorescence wavelength 615 nm, 665 nm, delay time 50 μsec) was measured using ann EnVision plate reader (PerkinElmer). The percent inhibition of CDK8 or CDK19 activity by the test compound can be calculated according to the following formula, wherein the fluorescence intensity of a reaction solution in the absence of compound is defined as the control, and the fluorescence intensity of a reaction solution in the presence of 10 μM of control compound is defined as the blank.

Experiment [2] addresses T2, CDK8/CycC (Homo sapiens, UniProt P49336).
T2 construct: purchased Carna Biosciences
The experiment can be described thus: CDK8 inhibitory activity (Kinase Tracer-236 / Eu-anti-GST fluorescence assay). The conditions noted are these: for Percent inhibition of CDK8 activity (%): test compound concentration given as '1 1.1.1\4' [sic]. Further details: Percent inhibition of CDK8 activity (%): concentration or dose not given beside the values. The class given is binding. How it is done: as §1

For experiment [3], the system named is human multiple myeloma RPMI8226 cells. Nature of the experiment: Inhibitory activity against human multiple myeloma RPMI8226 cell growth (CellTiter-Glo). The conditions noted are these: Homo sapiens, RPMI-8226, 192 h, 1 μM test compound, cultured for 8 days; read-out: Percent inhibition of RPMI8226 cell growth (%). Format: cell-based. Here is the method: The compound of the present invention was evaluated for its inhibitory activity against human multiple myeloma RPMI8226 cell growth by the following method.
A suspension of human multiple myeloma RPMI8226 cells (purchased from the Health Protection Agency) was inoculated at 40 μL (300 cells/well) to a 384-well plate and cultured at 37° C. for 1 day in a 5% CO2 incubator. After the culture, each test compound solution was added thereto at a test concentration of 1 μM using TECAN D300, and the cells were further cultured for 8 days. After the culture, CellTiter-Glo™ Luminescent Cell Viability Assay reagent (Promega) was added at 40 μL/well to a 384-well plate, and the amount of luminescence was measured using a luminometer. Inhibitory activity against human multiple myeloma RPMI8226 cell growth (percent inhibition (%)) of the test compound was calculated according to the following formula, which is based on the hypothesis that the amount of residual ATP reflects the number of cells. In this formula, 100% control represents the amount of luminescence from a well with only 0.1% DMSO added. Percent inhibition (%)=(1−(amount of luminescence of the test compound)÷(100% control))×100

T2 sequence (P49336 whole entry): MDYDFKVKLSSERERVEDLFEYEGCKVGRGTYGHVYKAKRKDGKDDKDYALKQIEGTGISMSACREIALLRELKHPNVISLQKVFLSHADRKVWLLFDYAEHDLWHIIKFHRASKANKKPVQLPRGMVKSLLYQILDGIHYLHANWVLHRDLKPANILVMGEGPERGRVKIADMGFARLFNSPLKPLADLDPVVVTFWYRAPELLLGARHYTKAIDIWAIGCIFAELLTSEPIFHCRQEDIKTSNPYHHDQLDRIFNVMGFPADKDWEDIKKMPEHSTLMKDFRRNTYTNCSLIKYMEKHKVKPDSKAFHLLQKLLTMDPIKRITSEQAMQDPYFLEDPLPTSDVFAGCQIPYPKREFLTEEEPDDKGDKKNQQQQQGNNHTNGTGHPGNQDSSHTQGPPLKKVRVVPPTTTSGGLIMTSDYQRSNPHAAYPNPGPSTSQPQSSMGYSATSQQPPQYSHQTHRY
T2 sequence (P24863 whole entry partner): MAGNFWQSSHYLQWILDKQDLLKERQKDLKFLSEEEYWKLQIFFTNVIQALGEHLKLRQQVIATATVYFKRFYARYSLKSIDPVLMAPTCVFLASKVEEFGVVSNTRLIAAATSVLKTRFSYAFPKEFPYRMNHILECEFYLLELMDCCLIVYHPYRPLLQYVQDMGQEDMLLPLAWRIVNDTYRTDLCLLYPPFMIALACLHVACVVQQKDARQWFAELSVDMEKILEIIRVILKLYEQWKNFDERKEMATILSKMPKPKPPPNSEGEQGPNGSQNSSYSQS
T1 sequence (Q9BWU1 whole entry): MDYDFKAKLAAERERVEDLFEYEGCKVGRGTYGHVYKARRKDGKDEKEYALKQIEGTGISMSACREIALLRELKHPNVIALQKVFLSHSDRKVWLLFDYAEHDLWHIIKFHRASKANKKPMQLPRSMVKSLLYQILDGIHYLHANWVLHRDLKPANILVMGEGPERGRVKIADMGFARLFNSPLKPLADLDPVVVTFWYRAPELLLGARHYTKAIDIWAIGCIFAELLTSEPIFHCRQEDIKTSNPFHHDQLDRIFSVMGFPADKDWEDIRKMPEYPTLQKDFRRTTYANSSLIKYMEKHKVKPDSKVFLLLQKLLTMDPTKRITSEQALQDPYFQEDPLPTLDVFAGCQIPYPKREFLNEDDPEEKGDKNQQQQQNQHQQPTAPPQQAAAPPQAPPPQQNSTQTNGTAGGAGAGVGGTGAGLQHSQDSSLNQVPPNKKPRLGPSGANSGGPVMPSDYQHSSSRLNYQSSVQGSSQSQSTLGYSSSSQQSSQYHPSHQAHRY
T1 sequence (P24863 whole entry partner): as the sequence (P24863 whole entry partner) above

As a reminder, the inhibition is the drop in the measured response relative to a control, in per cent. As to `NC(=O)c1sc(Oc2ccc(Br)cc2)c2c1CCc1cnsc1-2` [Example 1, 8-(4-Bromophenoxy)-4,5-dihydrothieno[3,4-g][1,2]benzothiazole-6-carboxamide], the “Percent inhibition of CDK19 activity (%)” value in experiment [1] was 103%. Besides, the “Percent inhibition of CDK8 activity (%)” value in experiment [2] is reported as 100%. Besides, the inhibition at 1 µM in experiment [3] was 56%.

For the molecule `N#Cc1ccc(Oc2sc(C(N)=O)c3c2-c2sncc2CC3)cc1` [Example 2, 8-(4-Cyanophenoxy)-4,5-dihydrothieno[3,4-g][1,2] benzothiazole-6-carboxamide], the “Percent inhibition of CDK19 activity (%)” value in experiment [1] is on record as 100%. Moreover, in experiment [2], the “Percent inhibition of CDK8 activity (%)” value worked out at 100%. Besides, in experiment [3], the inhibition at 1 µM stood at 58%.

As to `NC(=O)c1sc(Oc2ccc(C(=O)N3CCOCC3)cc2)c2c1CCc1cnsc1-2` [Example 3, 8-(4-(Morpholin-4-ylcarbonyl)phenoxy)-4,5-dihydrothieno[3,4-g][1,2]benzothiazole-6-carboxamide], in experiment [1], the “Percent inhibition of CDK19 activity (%)” value is 99%. In addition, the “Percent inhibition of CDK8 activity (%)” value in experiment [2] is reported as 97%. Further, the inhibition at 1 µM in experiment [3] is 60%.

In the case of `CN(C)C(=O)c1ccc(Oc2sc(C(N)=O)c3c2-c2sncc2CC3)cc1` [Example 4, 8-(4-(Dimethylcarbamoyl)phenoxy)-4,5-dihydrothieno[3,4-g][1,2] benzothiazole-6-carboxamide], in experiment [1], the “Percent inhibition of CDK19 activity (%)” value was 98%. Also, the “Percent inhibition of CDK8 activity (%)” value in experiment [2] turned out to be 97%. In addition, the inhibition at 1 µM in experiment [3] was found to be 61%.

For the molecule `CCCS(=O)(=O)c1ccc(Oc2sc(C(N)=O)c3c2-c2sncc2CC3)cc1` [Example 5, 8-(4-(Propylsulfonyl)phenoxy)-4,5-dihydrothieno[3,4-g][1,2]benzothiazole-6-carboxamide], the “Percent inhibition of CDK19 activity (%)” value in experiment [1] was found to be 100%. Also, the “Percent inhibition of CDK8 activity (%)” value in experiment [2] came out at 99%. Moreover, the inhibition at 1 µM in experiment [3] was 63%.

On to `CS(=O)(=O)c1cc(Oc2sc(C(N)=O)c3c2-c2sncc2CC3)ccc1C#N` [Example 6, 8-(4-Cyano-3-(methylsulfonyl)phenoxy)-4,5-dihydrothieno[3,4-g][1,2]benzothiazole-6-carboxamide], for which, in experiment [1], the “Percent inhibition of CDK19 activity (%)” value came out at 84%. Also, the “Percent inhibition of CDK8 activity (%)” value in experiment [2] was 89%. In addition, the inhibition at 1 µM in experiment [3] came out at 46%.

Regarding `Cc1ncccc1Oc1sc(C(N)=O)c2c1-c1sncc1CC2` [Example 7, 8-((2-Methylpyridin-3-yl)oxy)-4,5-dihydrothieno[3,4-g][1,2]benzothiazole-6-carboxamide], the “Percent inhibition of CDK19 activity (%)” value in experiment [1] was found to be 101%. Besides, the “Percent inhibition of CDK8 activity (%)” value in experiment [2] came out at 100%. Also, the inhibition at 1 µM in experiment [3] was found to be 69%.

Regarding `NC(=O)c1sc(Oc2ccc(Cl)nc2)c2c1CCc1cnsc1-2` [Example 10, 8-((6-Chloropyridin-3-yl)oxy)-4,5-dihydrothieno[3,4-g][1,2]benzothiazole-6-carboxamide], the “Percent inhibition of CDK19 activity (%)” value in experiment [1] is given as 101%. Further, the “Percent inhibition of CDK8 activity (%)” value in experiment [2] is reported as 96%. For the same molecule, the inhibition at 1 µM in experiment [3] is 60%.

`N#Cc1ccc(Oc2sc(C(N)=O)c3c2-c2sncc2CC3)cn1` [Example 11, 8-((6-Cyanopyridin-3-yl)oxy)-4,5-dihydrothieno[3,4-g][1,2]benzothiazole-6-carboxamide]: the “Percent inhibition of CDK19 activity (%)” value in experiment [1] is given as 99%. Moreover, the “Percent inhibition of CDK8 activity (%)” value in experiment [2] is given as 96%. The inhibition at 1 µM in experiment [3] was found to be 71%.

As for `NC(=O)c1sc(Oc2ccc(C(=O)O)nc2)c2c1CCc1cnsc1-2` [Example 12, 5-((6-Carbamoyl-4,5-dihydrothieno[3,4-g][1,2]benzothiazol-8-yl)oxy)pyridine-2-carboxylic acid], the “Percent inhibition of CDK19 activity (%)” value in experiment [1] is given as 97%. Besides, the “Percent inhibition of CDK8 activity (%)” value in experiment [2] was 100%. Moreover, in experiment [3], the inhibition at 1 µM was 65%.

For the molecule `N=C(N)c1ccc(Oc2sc(C(N)=O)c3c2-c2sncc2CC3)cn1` [Example 14, 8-((6-Carbamimidoylpyridin-3-yl)oxy)-4,5-dihydrothieno[3,4-g][1,2] benzothiazole-6-carboxamide], the “Percent inhibition of CDK19 activity (%)” value in experiment [1] is reported as 97%. For the same molecule, in experiment [2], the “Percent inhibition of CDK8 activity (%)” value turned out to be 92%. Moreover, the inhibition at 1 µM in experiment [3] was found to be 65%.

Regarding `CCOC(=O)c1ccc(Oc2sc(C(N)=O)c3c2-c2sncc2CC3)cn1` [Example 15, Ethyl 5-((6-carbamoyl-4,5-dihydrothieno[3,4-g][1,2]benzothiazol-8-yl)oxy)pyridine-2-carboxylate], the “Percent inhibition of CDK19 activity (%)” value in experiment [1] was 102%. Also, in experiment [2], the “Percent inhibition of CDK8 activity (%)” value is 100%. Further, in experiment [3], the inhibition at 1 µM is 64%.

As for `NC(=O)c1sc(Oc2ccc(Br)nc2)c2c1CCc1cnsc1-2` [Example 16, 8-((6-Bromopyridin-3-yl)oxy)-4,5-dihydrothieno[3,4-g][1,2]benzothiazole-6-carboxamide], the “Percent inhibition of CDK19 activity (%)” value in experiment [1] is 99%. Moreover, the “Percent inhibition of CDK8 activity (%)” value in experiment [2] is 98%. In addition, the inhibition at 1 µM in experiment [3] turned out to be 59%.

As to `CNC(=O)c1ccc(Oc2sc(C(N)=O)c3c2-c2sncc2CC3)cn1` [Example 17, 8-((6-(Methylcarbamoyl)pyridin-3-yl)oxy)-4,5-dihydrothieno[3,4-g][1,2]benzothiazole-6-carboxamide], the “Percent inhibition of CDK19 activity (%)” value in experiment [1] is given as 101%. Moreover, in experiment [2], the “Percent inhibition of CDK8 activity (%)” value was 102%. For the same molecule, the inhibition at 1 µM in experiment [3] turned out to be 66%.

For the molecule `NC(=O)c1sc(Oc2ccc(C(=O)N3CCOCC3)nc2)c2c1CCc1cnsc1-2` [Example 19, 8-((6-(Morpholin-4-ylcarbonyl)pyridin-3-yl)oxy)-4,5-dihydrothieno[3,4-g][1,2]benzothiazole-6-carboxamide], the “Percent inhibition of CDK19 activity (%)” value in experiment [1] was found to be 93%. For the same molecule, the “Percent inhibition of CDK8 activity (%)” value in experiment [2] was determined as 98%. Further, the inhibition at 1 µM in experiment [3] turned out to be 53%.

Consider `CC1(C(=O)Nc2ccc(Oc3sc(C(N)=O)c4c3-c3sncc3CC4)cn2)COC1` [Example 20, 8-((6-(((3-Methyloxetan-3-yl)carbonyl)amino)pyridin-3-yl)oxy)-4,5-dihydrothieno[3,4-g][1,2]benzothiazole-6-carboxamide], for which the “Percent inhibition of CDK19 activity (%)” value in experiment [1] stood at 99%. Besides, the “Percent inhibition of CDK8 activity (%)” value in experiment [2] turned out to be 102%. Besides, the inhibition at 1 µM in experiment [3] stood at 66%.

Turning to `NC(=O)c1sc(Oc2ccc(NC(=O)C3(O)CC3)nc2)c2c1CCc1cnsc1-2` [Example 21, 8-((6-(((1-Hydroxycyclopropyl)carbonyl)amino)pyridin-3-yl)oxy)-4,5-dihydrothieno[3,4-g][1,2]benzothiazole-6-carboxamide], the “Percent inhibition of CDK19 activity (%)” value in experiment [1] was 100%. For the same molecule, the “Percent inhibition of CDK8 activity (%)” value in experiment [2] stood at 106%. In addition, the inhibition at 1 µM in experiment [3] was 70%.

Consider `CC(C)(O)C(=O)Nc1ccc(Oc2sc(C(N)=O)c3c2-c2sncc2CC3)cn1` [Example 22, 8-((6-((2-Hydroxy-2-methylpropanoyl)amino)pyridin-3-yl)oxy)-4,5-dihydrothieno[3,4-g][1,2]benzothiazole-6-carboxamide], for which the “Percent inhibition of CDK19 activity (%)” value in experiment [1] was 104%. In addition, the “Percent inhibition of CDK8 activity (%)” value in experiment [2] is given as 102%. For the same molecule, the inhibition at 1 µM in experiment [3] came to 71%.

With `COCCNC(=O)c1ccc(Oc2sc(C(N)=O)c3c2-c2sncc2CC3)c(C)n1` [Example 25, 8-((6-((2-Methoxyethyl)carbamoyl)-2-methylpyridin-3-yl)oxy)-4,5-dihydrothieno[3,4-g][1,2] benzothiazole-6-carboxamide], in experiment [1], the “Percent inhibition of CDK19 activity (%)” value amounted to 100%. Also, in experiment [2], the “Percent inhibition of CDK8 activity (%)” value came to 104%. Further, the inhibition at 1 µM in experiment [3] came to 60%.

As to `Cc1nc(N(C)C(=O)C2CC2)ccc1Oc1sc(C(N)=O)c2c1-c1sncc1CC2` [Example 26, 8-((6-((Cyclopropylcarbonyl)(methyl)amino)-2-methylpyridin-3-yl)oxy)-4,5-dihydrothieno[3,4-g][1,2]benzothiazole-6-carboxamide], in experiment [1], the “Percent inhibition of CDK19 activity (%)” value worked out at 102%. The “Percent inhibition of CDK8 activity (%)” value in experiment [2] worked out at 103%. Also, in experiment [3], the inhibition at 1 µM was 66%.

Broadly, the IC50 is the point on the concentration scale where inhibition reaches its midpoint. As for `Oc1ccc(-c2n[nH]cc2-c2ccc3c(c2)OCCO3)c(O)c1` [control compound, 4-(4-(2,3-dihydro-1,4-benzodioxin-6-yl)-1H-pyrazol-3-yl)benzene-1,3-diol, reference compound], the IC50 in experiment [1] (control compound, for reference, read-out: CDK19 inhibition IC50) stood at 130 nM; in experiment [2] (control compound, for reference, read-out: CDK8 inhibition IC50), 120 nM.
